Experimental data: ChEMBL document CHEMBL3885881, “DrugMatrix”

Species on record: Rattus norvegicus
Assay: DrugMatrix - Regimen: Daily Repeat
Type: toxicity, organism-based, Sprague-Dawley
Design: regimen Daily Repeat, gender Male, age 6-8 weeks
Conditions: in vivo, sc, route subcutaneous, […]; for ABSOLUTE BASOPHIL / ABSOLUTE EOSINOPHIL / ABSOLUTE LYMPHOCYTE / ABSOLUTE MONOCYTE / ABSOLUTE SEGMENTED NEUTROPHIL / BASOPHIL / EOSINOPHIL / ERYTHROCYTE COUNT / HEMATOCRIT / HEMOGLOBIN / LEUKOCYTE COUNT / LYMPHOCYTE / MEAN CORPUSCULAR HEMOGLOBIN / MEAN CORPUSCULAR HEMOGLOBIN CONCENTRATION / MEAN CORPUSCULAR VOLUME / MONOCYTE / NEUTROPHIL / NUCLEATED RED BLOOD CELLS / PLATELET COUNT: tissue Blood; for ALANINE AMINOTRANSFERASE / ALBUMIN / ALKALINE PHOSPHATASE / ASPARTATE AMINOTRANSFERASE / BLOOD UREA NITROGEN / CARBON DIOXIDE / CHLORIDE / CHOLESTEROL / CREATINE PHOSPHOKINASE / CREATININE / GLUCOSE / LACTATE DEHYDROGENASE / LIPASE / PHOSPHORUS / POTASSIUM / SODIUM / TOTAL BILIRUBIN / TOTAL PROTEIN / URIC ACID: tissue Plasma
[1] = 0 mg/kg, 72 h, dose level Control, time 3 day
[2] = 0 mg/kg, 120 h, dose level Control, time 5 day
[3] = 22 mg/kg, 72 h, dose level Low, time 3 day
[4] = 22 mg/kg, 120 h, dose level Low, time 5 day

O=C(O)c1ccccc1O [SALICYLIC ACID]
ABSOLUTE BASOPHIL [1]: 0 CELLS/uL
ABSOLUTE EOSINOPHIL [1]: 0 CELLS/uL
ABSOLUTE LYMPHOCYTE [1]: 10887 CELLS/uL
ABSOLUTE MONOCYTE [1]: 56 CELLS/uL
ABSOLUTE SEGMENTED NEUTROPHIL [1]: 1057 CELLS/uL
BASOPHIL [1]: 0%
EOSINOPHIL [1]: 0%
ERYTHROCYTE COUNT [1]: 5.31 x10E6/uL
HEMATOCRIT [1]: 33.78%
HEMOGLOBIN [1]: 13.4 G/DL
LEUKOCYTE COUNT [1]: 12 x10E3/uL
LYMPHOCYTE [1]: 91.17%
MEAN CORPUSCULAR HEMOGLOBIN [1]: 25.25 pg
MEAN CORPUSCULAR HEMOGLOBIN CONCENTRATION [1]: 39.65 G/DL
MEAN CORPUSCULAR VOLUME [1]: 63.65 fL
MONOCYTE [1]: 0.5%
NEUTROPHIL [1]: 8.33%
NUCLEATED RED BLOOD CELLS [1]: 0 /100WBC
PLATELET COUNT [1]: 1142 x10E3/uL
ALANINE AMINOTRANSFERASE [1]: 57.17 u/L
ALBUMIN [1]: 4.28 G/DL
ALKALINE PHOSPHATASE [1]: 425.83 u/L
ASPARTATE AMINOTRANSFERASE [1]: 93.83 u/L
BLOOD UREA NITROGEN [1]: 14.17 mg/dL
CARBON DIOXIDE [1]: 33.5 mmol/L
CHLORIDE [1]: 100 MEQ/L
CHOLESTEROL [1]: 70.33 mg/dL
CREATINE PHOSPHOKINASE [1]: 438.67 u/L
CREATININE [1]: 0.19 mg/dL
GLUCOSE [1]: 138.5 mg/dL
LACTATE DEHYDROGENASE [1]: 190.17 u/L
LIPASE [1]: 9.83 u/L
PHOSPHORUS [1]: 11.05 mg/dL
POTASSIUM [1]: 6.59 MEQ/L
SODIUM [1]: 143.58 MEQ/L
TOTAL BILIRUBIN [1]: 0.22 mg/dL
TOTAL PROTEIN [1]: 6.15 G/DL
URIC ACID [1]: 1.3 mg/dL
ABSOLUTE BASOPHIL [2]: 0 CELLS/uL
ABSOLUTE EOSINOPHIL [2]: 91.17 CELLS/uL
ABSOLUTE LYMPHOCYTE [2]: 11847.67 CELLS/uL
ABSOLUTE MONOCYTE [2]: 172.83 CELLS/uL
ABSOLUTE SEGMENTED NEUTROPHIL [2]: 1105 CELLS/uL
BASOPHIL [2]: 0%
EOSINOPHIL [2]: 0.67%
ERYTHROCYTE COUNT [2]: 5.35 x10E6/uL
HEMATOCRIT [2]: 33.65%
HEMOGLOBIN [2]: 13.42 G/DL
LEUKOCYTE COUNT [2]: 13.22 x10E3/uL
LYMPHOCYTE [2]: 89.83%
MEAN CORPUSCULAR HEMOGLOBIN [2]: 25.12 pg
MEAN CORPUSCULAR HEMOGLOBIN CONCENTRATION [2]: 39.9 G/DL
MEAN CORPUSCULAR VOLUME [2]: 63 fL
MONOCYTE [2]: 1.33%
NEUTROPHIL [2]: 8.17%
NUCLEATED RED BLOOD CELLS [2]: 0 /100WBC
PLATELET COUNT [2]: 1347.83 x10E3/uL
ALANINE AMINOTRANSFERASE [2]: 50 u/L
ALBUMIN [2]: 4.1 G/DL
ALKALINE PHOSPHATASE [2]: 329.17 u/L
ASPARTATE AMINOTRANSFERASE [2]: 77.17 u/L
BLOOD UREA NITROGEN [2]: 16.83 mg/dL
CARBON DIOXIDE [2]: 34.83 mmol/L
CHLORIDE [2]: 99.83 MEQ/L
CHOLESTEROL [2]: 75.67 mg/dL
CREATINE PHOSPHOKINASE [2]: 295.83 u/L
CREATININE [2]: 0.18 mg/dL
GLUCOSE [2]: 156.33 mg/dL
LACTATE DEHYDROGENASE [2]: 166.83 u/L
LIPASE [2]: 9.83 u/L
PHOSPHORUS [2]: 12.18 mg/dL
POTASSIUM [2]: 6.69 MEQ/L
SODIUM [2]: 143.97 MEQ/L
TOTAL BILIRUBIN [2]: 0.22 mg/dL
TOTAL PROTEIN [2]: 6.05 G/DL
URIC ACID [2]: 1.6 mg/dL
ABSOLUTE BASOPHIL [3]: 0 CELLS/uL
ABSOLUTE EOSINOPHIL [3]: 26.67 CELLS/uL
ABSOLUTE LYMPHOCYTE [3]: 6989.67 CELLS/uL
ABSOLUTE MONOCYTE [3]: 0 CELLS/uL
ABSOLUTE SEGMENTED NEUTROPHIL [3]: 550.33 CELLS/uL
BASOPHIL [3]: 0%
EOSINOPHIL [3]: 0.33%
ERYTHROCYTE COUNT [3]: 5.05 x10E6/uL
HEMATOCRIT [3]: 33.17%
HEMOGLOBIN [3]: 13.07 G/DL
LEUKOCYTE COUNT [3]: 7.57 x10E3/uL
LYMPHOCYTE [3]: 92.33%
MEAN CORPUSCULAR HEMOGLOBIN [3]: 25.9 pg
MEAN CORPUSCULAR HEMOGLOBIN CONCENTRATION [3]: 39.43 G/DL
MEAN CORPUSCULAR VOLUME [3]: 65.6 fL
MONOCYTE [3]: 0%
NEUTROPHIL [3]: 7.33%
NUCLEATED RED BLOOD CELLS [3]: 0 /100WBC
PLATELET COUNT [3]: 1158.33 x10E3/uL
ALANINE AMINOTRANSFERASE [3]: 58.33 u/L
ALBUMIN [3]: 4.43 G/DL
ALKALINE PHOSPHATASE [3]: 511.33 u/L
ASPARTATE AMINOTRANSFERASE [3]: 103 u/L
BLOOD UREA NITROGEN [3]: 13.33 mg/dL
CARBON DIOXIDE [3]: 32 mmol/L
CHLORIDE [3]: 102 MEQ/L
CHOLESTEROL [3]: 71 mg/dL
CREATINE PHOSPHOKINASE [3]: 208.67 u/L
CREATININE [3]: 0.19 mg/dL
GLUCOSE [3]: 141.33 mg/dL
LACTATE DEHYDROGENASE [3]: 161.67 u/L
LIPASE [3]: 10 u/L
PHOSPHORUS [3]: 12.97 mg/dL
POTASSIUM [3]: 6.87 MEQ/L
SODIUM [3]: 150.3 MEQ/L
TOTAL BILIRUBIN [3]: 0.2 mg/dL
TOTAL PROTEIN [3]: 6.27 G/DL
URIC ACID [3]: 0.83 mg/dL
ABSOLUTE BASOPHIL [4]: 0 CELLS/uL
ABSOLUTE EOSINOPHIL [4]: 207.33 CELLS/uL
ABSOLUTE LYMPHOCYTE [4]: 12679.33 CELLS/uL
ABSOLUTE MONOCYTE [4]: 80 CELLS/uL
ABSOLUTE SEGMENTED NEUTROPHIL [4]: 1400 CELLS/uL
BASOPHIL [4]: 0%
EOSINOPHIL [4]: 1.33%
ERYTHROCYTE COUNT [4]: 5.41 x10E6/uL
HEMATOCRIT [4]: 34.5%
HEMOGLOBIN [4]: 13.87 G/DL
LEUKOCYTE COUNT [4]: 14.37 x10E3/uL
LYMPHOCYTE [4]: 88%
MEAN CORPUSCULAR HEMOGLOBIN [4]: 25.6 pg
MEAN CORPUSCULAR HEMOGLOBIN CONCENTRATION [4]: 40.23 G/DL
MEAN CORPUSCULAR VOLUME [4]: 63.73 fL
MONOCYTE [4]: 0.67%
NEUTROPHIL [4]: 10%
NUCLEATED RED BLOOD CELLS [4]: 0 /100WBC
PLATELET COUNT [4]: 1310 x10E3/uL
ALANINE AMINOTRANSFERASE [4]: 52.67 u/L
ALBUMIN [4]: 4.17 G/DL
ALKALINE PHOSPHATASE [4]: 362.33 u/L
ASPARTATE AMINOTRANSFERASE [4]: 87.67 u/L
BLOOD UREA NITROGEN [4]: 16.33 mg/dL
CARBON DIOXIDE [4]: 30.33 mmol/L
CHLORIDE [4]: 105.67 MEQ/L
CHOLESTEROL [4]: 78.33 mg/dL
CREATINE PHOSPHOKINASE [4]: 263.33 u/L
CREATININE [4]: 0.18 mg/dL
GLUCOSE [4]: 153.33 mg/dL
LACTATE DEHYDROGENASE [4]: 272.67 u/L
LIPASE [4]: 9 u/L
PHOSPHORUS [4]: 13.37 mg/dL
POTASSIUM [4]: 7.11 MEQ/L
SODIUM [4]: 149.4 MEQ/L
TOTAL BILIRUBIN [4]: 0.2 mg/dL
TOTAL PROTEIN [4]: 6.07 G/DL
URIC ACID [4]: 1.5 mg/dL
